# Test results from PubChem BioAssay (NCI).
#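 Exposure lasted 48 hours, with cells grown in 96-well plates and compounds tested at five concentrations. TGI: total growth inhibition.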
# How the values were obtained:
# Experiment in all cases: NCI tumour cell line growth inhibition, 48 h
# 786-0 renal = tested on: 786-0 renal
# A498 renal = tested on: A498 renal
# A549 NSCLC = tested on: A549 NSCLC
# ACHN renal = tested on: ACHN renal
# CAKI-1 renal = tested on: CAKI-1 renal
# CCRF-CEM leukemia = tested on: CCRF-CEM leukemia
# COLO 205 colon = tested on: COLO 205 colon
# DLD-1 colon = tested on: DLD-1 colon
# DMS 273 small cell lung = tested on: DMS 273 small cell lung
# EKVX NSCLC = tested on: EKVX NSCLC
# HCC-2998 colon = tested on: HCC-2998 colon
# HCT-116 colon = tested on: HCT-116 colon
# HCT-15 colon = tested on: HCT-15 colon
# HL-60(TB) leukemia = tested on: HL-60(TB) leukemia
# HOP-62 NSCLC = tested on: HOP-62 NSCLC
# HOP-92 NSCLC = tested on: HOP-92 NSCLC
# HT29 colon = tested on: HT29 colon
# IGROV1 ovarian = tested on: IGROV1 ovarian
# K-562 leukemia = tested on: K-562 leukemia
# KM12 colon = tested on: KM12 colon
# KM20L2 colon = tested on: KM20L2 colon
# LOX IMVI melanoma = tested on: LOX IMVI melanoma
# LXFL 529 NSCLC = tested on: LXFL 529 NSCLC
# M14 melanoma = tested on: M14 melanoma
# MALME-3M melanoma = tested on: MALME-3M melanoma
# MOLT-4 leukemia = tested on: MOLT-4 leukemia
# NCI-H226 lung = tested on: NCI-H226 lung
# NCI-H23 lung = tested on: NCI-H23 lung
# NCI-H460 lung = tested on: NCI-H460 lung
# NCI-H522 lung = tested on: NCI-H522 lung
# OVCAR-3 ovarian = tested on: OVCAR-3 ovarian
# OVCAR-4 ovarian = tested on: OVCAR-4 ovarian
# OVCAR-5 ovarian = tested on: OVCAR-5 ovarian
# OVCAR-8 ovarian = tested on: OVCAR-8 ovarian
# RPMI-8226 leukemia = tested on: RPMI-8226 leukemia
# RXF 393 renal = tested on: RXF 393 renal
# SF-268 CNS = tested on: SF-268 CNS
# SF-295 CNS = tested on: SF-295 CNS
# SF-539 CNS = tested on: SF-539 CNS
# SK-MEL-2 melanoma = tested on: SK-MEL-2 melanoma
# SK-MEL-28 melanoma = tested on: SK-MEL-28 melanoma
# SK-MEL-5 melanoma = tested on: SK-MEL-5 melanoma
# SK-OV-3 ovarian = tested on: SK-OV-3 ovarian
# SN12C renal = tested on: SN12C renal
# SNB-19 CNS = tested on: SNB-19 CNS
# SNB-75 CNS = tested on: SNB-75 CNS
# SR leukemia = tested on: SR leukemia
# SW-620 colon = tested on: SW-620 colon
# TK-10 renal = tested on: TK-10 renal
# U251 CNS = tested on: U251 CNS
# UACC-257 melanoma = tested on: UACC-257 melanoma
# UACC-62 melanoma = tested on: UACC-62 melanoma
# UO-31 renal = tested on: UO-31 renal
# DMS 114 small cell lung = tested on: DMS 114 small cell lung
# HOP-18 NSCLC = tested on: HOP-18 NSCLC
# M19-MEL melanoma = tested on: M19-MEL melanoma
# SNB-78 CNS = tested on: SNB-78 CNS
compound,measurement,setting,value
c1ccncc1,TGI,786-0 renal,> 100 µM
same,TGI,A498 renal,> 100 µM
same,TGI,A549 NSCLC,> 100 µM
same,TGI,ACHN renal,> 100 µM
same,TGI,CAKI-1 renal,> 100 µM
same,TGI,CCRF-CEM leukemia,> 100 µM
same,TGI,COLO 205 colon,> 100 µM
same,TGI,DLD-1 colon,> 100 µM
same,TGI,DMS 273 small cell lung,> 100 µM
same,TGI,EKVX NSCLC,> 100 µM
same,TGI,HCC-2998 colon,> 100 µM
same,TGI,HCT-116 colon,> 100 µM
same,TGI,HCT-15 colon,> 100 µM
same,TGI,HL-60(TB) leukemia,> 100 µM
same,TGI,HOP-62 NSCLC,> 100 µM
same,TGI,HOP-92 NSCLC,> 100 µM
same,TGI,HT29 colon,> 100 µM
same,TGI,IGROV1 ovarian,> 100 µM
same,TGI,K-562 leukemia,> 100 µM
same,TGI,KM12 colon,> 100 µM
same,TGI,KM20L2 colon,> 100 µM
same,TGI,LOX IMVI melanoma,> 100 µM
same,TGI,LXFL 529 NSCLC,> 100 µM
same,TGI,M14 melanoma,> 100 µM
same,TGI,MALME-3M melanoma,> 100 µM
same,TGI,MOLT-4 leukemia,> 100 µM
same,TGI,NCI-H226 lung,> 100 µM
same,TGI,NCI-H23 lung,> 100 µM
same,TGI,NCI-H460 lung,> 100 µM
same,TGI,NCI-H522 lung,> 100 µM
same,TGI,OVCAR-3 ovarian,> 100 µM
same,TGI,OVCAR-4 ovarian,> 100 µM
same,TGI,OVCAR-5 ovarian,> 100 µM
same,TGI,OVCAR-8 ovarian,> 100 µM
same,TGI,RPMI-8226 leukemia,> 100 µM
same,TGI,RXF 393 renal,> 100 µM
same,TGI,SF-268 CNS,> 100 µM
same,TGI,SF-295 CNS,> 100 µM
same,TGI,SF-539 CNS,> 100 µM
same,TGI,SK-MEL-2 melanoma,> 100 µM
same,TGI,SK-MEL-28 melanoma,> 100 µM
same,TGI,SK-MEL-5 melanoma,> 100 µM
same,TGI,SK-OV-3 ovarian,> 100 µM
same,TGI,SN12C renal,> 100 µM
same,TGI,SNB-19 CNS,> 100 µM
same,TGI,SNB-75 CNS,> 100 µM
same,TGI,SR leukemia,> 100 µM
same,TGI,SW-620 colon,> 100 µM
same,TGI,TK-10 renal,> 100 µM
same,TGI,U251 CNS,> 100 µM
same,TGI,UACC-257 melanoma,> 100 µM
same,TGI,UACC-62 melanoma,> 100 µM
same,TGI,UO-31 renal,> 100 µM
CC(=O)Nc1ccc(-c2nnc(SCC(=O)Nc3cccc(Cl)c3)o2)cc1,TGI,786-0 renal,23.7 µM
same,TGI,A498 renal,34 µM
same,TGI,A549 NSCLC,33.1 µM
same,TGI,ACHN renal,28.9 µM
same,TGI,CAKI-1 renal,33.2 µM
same,TGI,CCRF-CEM leukemia,> 100 µM
same,TGI,COLO 205 colon,31 µM
same,TGI,DLD-1 colon,28.3 µM
same,TGI,DMS 114 small cell lung,6.07 µM
same,TGI,DMS 273 small cell lung,62.4 µM
same,TGI,EKVX NSCLC,45 µM
same,TGI,HCC-2998 colon,37.6 µM
same,TGI,HCT-116 colon,25.5 µM
same,TGI,HCT-15 colon,> 100 µM
same,TGI,HL-60(TB) leukemia,60.4 µM
same,TGI,HOP-18 NSCLC,25.5 µM
same,TGI,HOP-62 NSCLC,36.2 µM
same,TGI,HT29 colon,31 µM
same,TGI,IGROV1 ovarian,32.5 µM
same,TGI,K-562 leukemia,> 100 µM
same,TGI,KM12 colon,30.8 µM
same,TGI,KM20L2 colon,31.4 µM
same,TGI,LOX IMVI melanoma,26.8 µM
same,TGI,LXFL 529 NSCLC,24.8 µM
same,TGI,M14 melanoma,29.5 µM
same,TGI,M19-MEL melanoma,> 100 µM
same,TGI,MALME-3M melanoma,26.8 µM
same,TGI,MOLT-4 leukemia,51.8 µM
same,TGI,NCI-H226 lung,48.8 µM
same,TGI,NCI-H23 lung,23 µM
same,TGI,NCI-H460 lung,51.2 µM
same,TGI,NCI-H522 lung,23.5 µM
same,TGI,OVCAR-3 ovarian,22.1 µM
same,TGI,OVCAR-4 ovarian,42.3 µM
same,TGI,OVCAR-5 ovarian,40.3 µM
same,TGI,OVCAR-8 ovarian,> 100 µM
same,TGI,RPMI-8226 leukemia,> 100 µM
same,TGI,RXF 393 renal,31.4 µM
same,TGI,SF-268 CNS,37.8 µM
same,TGI,SF-295 CNS,33.6 µM
same,TGI,SF-539 CNS,34.8 µM
same,TGI,SK-MEL-2 melanoma,70.4 µM
same,TGI,SK-MEL-28 melanoma,33.8 µM
same,TGI,SK-MEL-5 melanoma,29.1 µM
same,TGI,SK-OV-3 ovarian,> 100 µM
same,TGI,SN12C renal,31.6 µM
same,TGI,SNB-19 CNS,39.4 µM
same,TGI,SNB-75 CNS,71.9 µM
same,TGI,SNB-78 CNS,> 100 µM
same,TGI,SW-620 colon,28 µM
same,TGI,TK-10 renal,33.9 µM
same,TGI,U251 CNS,23.2 µM
same,TGI,UACC-257 melanoma,43.6 µM
same,TGI,UACC-62 melanoma,33.9 µM
same,TGI,UO-31 renal,76.9 µM
